Measurements published in US20220204509A1, “PYRIMIDO FIVE-MEMBERED HETEROCYCLIC COMPOUND AND USE THEREOF AS MUTANT IDH2 INHIBITOR” (EPITAS BIOSCIENCES (SHANGHAI) CO., LTD., priority 2019, published 2022).
Where a chain is given by its changes, count along the chain named.

Columns and labels:
IDH2/WT = target: T1, IDH2/WT (Homo sapiens, UniProt P48735); assay: Determination of the selectivity of compounds to wild-type IDH2 (IDH2/WT); assay type: biochemical; details: Inhibitory activity on IDH2/WT; pre-incubated at 25° C. for 16 hours
T1 construct: made in house; host or cells: E. coli
T1 sequence (P48735 40-452): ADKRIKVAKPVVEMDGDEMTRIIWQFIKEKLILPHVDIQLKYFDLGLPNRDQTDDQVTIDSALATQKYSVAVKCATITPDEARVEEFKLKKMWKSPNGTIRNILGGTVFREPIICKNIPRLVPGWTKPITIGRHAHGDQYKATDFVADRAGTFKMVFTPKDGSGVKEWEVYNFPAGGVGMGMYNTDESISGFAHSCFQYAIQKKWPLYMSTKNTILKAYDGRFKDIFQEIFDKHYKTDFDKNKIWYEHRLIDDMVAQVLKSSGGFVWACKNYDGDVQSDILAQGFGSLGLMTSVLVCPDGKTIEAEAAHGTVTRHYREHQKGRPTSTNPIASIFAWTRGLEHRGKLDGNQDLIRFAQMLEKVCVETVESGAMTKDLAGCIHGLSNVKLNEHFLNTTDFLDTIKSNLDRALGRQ
Procedure: The compound was incubated with IDH2/WT and NADP, and then the reaction was initiated by adding isocitrate. After a certain time of reaction under linear conditions, lipoamide dehydrogenase and resazurin were added to detect the amount of fluorescent substances. In this experiment, NADP was reduced to NADPH. The latter reduced resazurin to highly fluorescent resorufin under the action of lipoamide dehydrogenase. The production of resorufin was detected to quantify the amount of cofactor NADPH generated after a specific reaction time, so as to calculate the compound's inhibitory effect on IDH2/WT.
Specifically, in a 96-well plate, in a total reaction volume of 50 μL, a mixture of 0.6 nM IDH2/WT, serially diluted inhibitors, and 50 μM NADP in a reaction buffer containing Tris-HCl 20 mM (pH 7.5), 150 mM NaCl, 10 mM MgCl2, 10% Glycerol, 0.03% BSA, and 2.5 mM β-mercaptoethanol, was pre-incubated at 25° C. for 16 hours. Isocitrate was added to 50 μM and the reaction was carried out at 25° C. for 30 minutes. Then 25 μL of a mixed solution (lipoamide dehydrogenase 36 μg/mL, resazurin 30 μM) prepared with the above reaction buffer was added to convert resazurin to resorufin to measure the NADPH produced. After 10 minutes of incubation at 25° C., the fluorescence value was measured by Tecan INFINITE F FLEX under Ex544/Em590. The enzyme activity was measured at 10 concentrations for each compound, and multiple background holes without enzyme and full enzyme activity holes without compound were set up in the reaction. The concentration of dimethyl sulfoxide in the system was less than or equal to 2%. The value of IC50 was obtained by the formula: Y=100/(1+10^((Log IC50−X)*HillSlope)) using XLFit5 software (IDBS Software). In the method, the multi-well plate was purchased from Thermo Fisher Scientific, NADP, α-KG, lipoamide dehydrogenase, and resazurin were purchased from Shenggong Bioengineering Co., Ltd., and IDH2/WT was obtained by purification after E. coli overexpression.

IDH2/R140Q [1] = target: T2, IDH2/R140Q (Homo sapiens, UniProt P48735, R140Q); assay: Inhibition of mutant IDH2 activity at the cell level (extracellular 2-HG, U87MG overexpressing IDH2/R140Q); assay type: cell-based; details: U87MG overexpressing IDH2/R140Q; 2-HG in medium after 24 hours of culturing with compound; read-out: IC50
T2 sequence (P48735 40-452 R140Q): T1 sequence (P48735 40-452) with R101Q
Procedure: 2-hydroxyglutarate dehydrogenase (2HGDH) can reduce NAD+ to NADH in the presence of 2-HG. The latter can be quantitatively detected by diaphorase and its substrate Resazurin.
The glioma cells U87MG overexpressing IDH2/R140Q mutation were cultured in 1% sodium pyruvate high-sugar MEM, 10% FBS, and placed in a CO2 incubator (37° C., 5% CO2, 95% air) for cultivation.
The cells were digested with trypsin and seeded in a 96-well plate at a density of 1×10^4 with a medium of 200 μL and cultured in a 37° C. incubator overnight. The next day, the test compound was added to a final concentration of 0.1% for DMSO. […] The protein and other components in the medium that may interfere with the results were filtered, and the follow-up method was used to detect the content of 2-HG. 50 uL CellTiter-Glo (purchased from Promega) was added to the 96-well plate with the remaining 100 μL of medium to detect cell survival;
Extracellular 2-HG detecting system:
(1) 50 μL reaction system: reaction buffer (50 mM Tris pH7.5, 100 mM NaCl, 20 mM MgCl2, 0.05% BSA), in which the final concentration of NAD+ was 40 μM, the final concentration of 2HGDH was 20 nM, and the test sample was added to 5 μL of medium; the reaction solution was mixed and centrifuged, and the reaction was carried out for 1 hour at 25° C. in the dark;
Preparation of 2-HG standard curve: a 2-HG stock solution was diluted to 20 μM with reaction buffer, and a 2-fold gradient diluting was performed for a total of 6 points. Afterwards, the above-mentioned 2-HG was measured according to the extracellular 2-HG detecting system, and a standard curve was calculated and drawn.
Calculation of extracellular 2-HG content:
The fluorescence value obtained in the extracellular 2-HG detecting system was calculated using the 2-HG standard curve to calculate the content of 2-HG in the medium, and DMSO was used as a negative control to calculate the compound's inhibition against IDH2/R140Q mutation producing 2-HG activity.

IDH2/R140Q [2] = target: T2, IDH2/R140Q; assay: Determination of the inhibitory activity of the compounds on IDH2/R140Q (NADPH reduction, resazurin/lipoamide dehydrogenase detection); assay type: biochemical; parameters: purchased Abcam ab198153; details: IDH2/R140Q inhibitory activity, read-out: IC50
Procedure: In this example, the inhibitory activity of a compound on IDH2/R140Q was determined by measuring the reduction of the cofactor NADPH. The compound was incubated with IDH2/R140Q and NADPH, and then the reaction was initiated by adding α-KG. After a certain time of reaction under linear conditions, lipoamide dehydrogenase and the corresponding substrate resazurin were added for detection. Lipoamide dehydrogenase terminated the IDH2/R140Q reaction bγ subtracting the available cofactor NADPH. It oxidized NADPH to NADP, and reduced resazurin to highly fluorescent resorufin. The production of resorufin was detected to quantify the amount of cofactor NADPH remaining after a specific reaction time.
Then 25 μL of a stop mixed solution (lipoamide dehydrogenase 36 μg/mL, resazurin 30 μM) prepared with the above reaction buffer was added to convert resazurin to resorufin to measure the remaining NADPH. After 10 minutes of incubation at 25° C., the fluorescence value was measured by Tecan […] […] The enzyme activity was measured at 10 concentrations for each compound, and multiple background holes without enzyme and full enzyme activity holes without compound were set up in the reaction. The concentration of dimethyl sulfoxide in the system was less than or equal to 2%. […] The multi-well plate in this example was purchased from Thermo Fisher Scientific, NADPH, α-KG, lipoamide dehydrogenase, and resazurin were purchased from Shenggong Bioengineering Co., Ltd., and IDH2/R140Q was purchased from Abcam (ab198153).

[3] = pre-incubated at 25° C. for 16 hours

Row | Compound | IC50 (IDH2/WT) | IC50 (IDH2/R140Q [1]) | IC50 (IDH2/R140Q [2]; [3]) | IC50 (IDH2/R140Q [2]; cells marked (1 h))
1 | Cc1cc2c(NC3CCCC3)nc(-c3ccccc3)nc2[nH]1 [Compound 36, N-cyclopentyl-6-methyl-2-phenyl-7H-pyrrolo[2,3-d]pyrimidin-4-amine] | > 5 µM | 0.1 to 1 µM | < 0.1 µM | 
2 | Cc1cc2c(NC3CC3)nc(-c3ccccc3F)nc2[nH]1 [Compound 28, N-cyclopropyl-2-(2-fluorophenyl)-6-methyl-7H-pyrrolo[2,3-d]pyrimidin-4-amine] | > 5 µM | < 0.1 µM | 0.1 to 1 µM | 
3 | Cc1cc2c(NC3CC3)nc(-c3ccccc3)nc2[nH]1 [Compound 23, N-cyclopropyl-6-methyl-2-phenyl-7H-pyrrolo[2,3-d]pyrimidin-4-amine] | > 5 µM | 0.1 to 1 µM | 0.1 to 1 µM | 
4 | Cc1cc2c(NCC3CC3)nc(-c3ccccc3)nc2[nH]1 [Compound 29, N-(cyclopropylmethyl)-6-methyl-2-phenyl-7H-pyrrole[2,3-d]pyrimidin-4-amine] |  | 1 to 10 µM | 1 to 10 µM | 
5 | CC(C)n1cnc2c(Nc3ccnc(C(F)(F)F)c3)nc(-c3cccnc3)nc21 [Compound 5, 9-isopropyl-2-(pyridin-3-yl)-N-(2-(trifluoromethyl)pyridin-4-yl)-9H-purin-6-amine] |  | > 10 µM |  | > 10 µM
6 | Cc1cc2c(NC3CCC3)nc(-c3ccccc3F)nc2[nH]1 [Compound 48, N-cyclobutyl-2-(2-fluorophenyl)-6-methyl-7H-pyrrolo[2,3-d]pyrimidin-4-amine] |  | < 0.1 µM | < 0.1 µM | 
7 | Cc1cc2c(NC(C)C)nc(-c3ccccn3)nc2[nH]1 [Compound 16, N-isopropyl-6-methyl-2-(pyridin-2-yl)-7H-pyrrolo[2,3-d]pyrimidin-4-amine] |  | 1 to 10 µM | > 10 µM | 
8 | Cc1cc2c(NC3CC3)nc(-c3ccc(O)cc3)nc2[nH]1 [Compound 47, 4-(4-(cyclopropylamino)-6-methyl-7H-pyrrolo[2,3-d]pyrimidin-2-yl)phenol] |  | 0.1 to 1 µM | 0.1 to 1 µM | 
9 | CCOC(=O)Cc1cc2c(Nc3ccccc3)nc(-c3ccccc3)nc2[nH]1 [Compound 44] |  | 1 to 10 µM | 1 to 10 µM | 
10 | Cc1cc2c(NC(C)C)nc(-c3ccncc3)nc2[nH]1 [Compound 18, N-isopropyl-6-methyl-2-(pyridin-4-yl)-7H-pyrrolo[2,3-d]pyrimidin-4-amine] |  | > 10 µM | > 10 µM | 
11 | Cc1nc2c(Nc3ccccc3)nc(-c3ccccc3)nc2[nH]1 [Compound 14, 8-methyl-N,2-diphenyl-9H-purin-6-amine] |  | > 10 µM |  | > 10 µM
12 | Cc1cc2c(NC3CC3)nc(-c3ccccc3C)nc2[nH]1 [Compound 43, N-cyclopropyl-6-methyl-2-(o-tolyl)-7H-pyrrolo[2,3-d]pyrimidin-4-amine] |  | 0.1 to 1 µM | 1 to 10 µM | 
13 | CC(C)Nc1nc(-c2ccccc2)nc2[nH]c(-c3ccccc3)cc12 [Compound 46, N-isopropyl 2,6-diphenyl-7H-pyrrolo[2,3-d]pyrimidin-4-amine] |  | > 10 µM | > 10 µM | 
14 | CC(C)Nc1nc(-c2ccccc2)nc2[nH]c(C(F)(F)F)cc12 [Compound 49, N-isopropyl-2-phenyl-6-(trifluoromethyl)-7H-pyrrolo[2,3-d]pyrimidin-4-amine] |  | < 0.1 µM | < 0.1 µM | 
15 | Cc1cc2c(Nc3cccc(Cl)c3)nc(-c3ccccc3)nc2[nH]1 [Compound 41, N-(3-chlorophenyl)-6-methyl-2-phenyl-7H-pyrrolo[2,3-d]pyrimidin-4-amine] |  | 1 to 10 µM | 1 to 10 µM | 
16 | Cc1ccc(-c2nc(NC3CC3)c3cc(C)[nH]c3n2)cc1 [Compound 45, N-cyclopropyl-6-methyl-2-(p-tolyl)-7H-pyrrolo[2,3-d]pyrimidin-4-amine] |  | 1 to 10 µM | 1 to 10 µM | 
17 | Cc1cc2c(Nc3ccccc3)nc(Nc3ccccc3)nc2[nH]1 [Compound 22, 6-methyl-N2,N4-diphenyl-7H-pyrrolo[2,3-d]pyrimidine-2,4-diamine] |  | 1 to 10 µM | > 10 µM | 
18 | Cc1cccc(-c2nc(NC3CC3)c3cc(C)[nH]c3n2)c1 [Compound 42, N-cyclopropyl-6-methyl-2-(m-tolyl)-7H-pyrrolo[2,3-d]pyrimidin-4-amine] |  | 0.1 to 1 µM | 0.1 to 1 µM | 
19 | Cn1cnc2c(Nc3ccccc3)nc(-c3ccccc3)nc21 [Compound 24, 9-methyl-N,2-diphenyl-9H-purin-6-amine] |  | > 10 µM | > 10 µM | 
20 | Cc1cc2c(Nc3ccnc(C(F)(F)F)c3)nc(-c3ccccc3)nc2[nH]1 [Compound 20, 6-methyl-2-phenyl-N-(2-(trifluoromethyl)pyridin-4-yl)-7H-pyrrolo[2,3-d]pyrimidin-4-amine] |  | 1 to 10 µM | 0.1 to 1 µM | 
